These results are taken from patent US10266609B2, “Immunomodulating beta-1,6-D-glucans” (Innate Biotherapeutics, LLC, priority 2014, dated 2019).

The experiment deals with Anti-β-1,6-Glucan IgG antibodies (affinity purified from IVIG, Baxter). As to the kind of experiment: ELISA: binding of oligosaccharides to anti-β-1,6-glucan antibodies. Also: key: a plus (+) sign indicates that the glucan was active in the assay; a minus (−) sign indicates that the glucan was not active; the '+/−' symbol indicates inconclusive results. The note with it: plate coated with oligosaccharide in PBS; 40 ug/mL anti-Beta 1,6 Glucan IgG; anti-human IgG-HRP, TMB, absorbance at 620 nm. As to the method: Binding of oligosaccharides to anti-β-1,6-glucan antibodies is performed as described in the following protocol.
• 1. […] Anti-β-1,6-Glucan IgG antibodies (affinity purified from IVIG, Baxter) • 6. […] PBS-Tween buffer (PH 7.2, 0.05% Tween 20, Kpl cat #51-12-01) II. Method: Detection of Anti-Beta Glucan IgG by ELISA • 1. Coat plate with oligosaccharides in PBS overnight at 4° C. • 2. Wash 3 times with 250 uL of PBS-Tween • 3. Empty plate • 4. Block plate with 200 uL of Casein for 1 hour at room temperature • 5. Empty plate • 6. Add 40 ug/mL anti-Beta 1,6 Glucan IgG (4 ug/well) in Casein • 7. Incubate for 45 min at room temperature • 8. Wash 3 times with 250 uL of PBS-Tween • 9. Empty plate • 10. Add detection antibody: anti-human IgG-HRP at 1:5000—in casein. Incubate for 45 min at room temperature in the dark • 11. Wash 5 times with 250 uL of PBS-Tween • 12. Empty plate • 13. Add 100 uL of one step ultra TMB • 14. Measure the absorbance at 620 nm every 1 min for 60 min Tables 1-3 provide ELISA assay data for certain glucan compounds.
On to `[N-]=[N+]=NCCOC1OC(COC2OC(COC3OC(COC4OC(COC5OC(COC6OC(CO)C(O)C(O)C6O)C(O)C(O)C5O)C(O)C(O)C4O)C(O)C(O)C3O)C(O)C(O)C2O)C(O)C(O)C1O` (stereo not drawn) [α-O(CH2)2N3, n=6], for which the “ELISA assay data: glucan active in detection of anti-beta glucan IgG” value (“ELISA assay data: glucan active” below) is on record as “+”. As to `CO[C@H]1O[C@H](CO[C@@H]2O[C@H](CO[C@@H]3O[C@H](CO[C@@H]4O[C@H](CO[C@@H]5O[C@H](CO[C@@H]6O[C@H](CO)[C@@H](O)[C@H](O)[C@H]6O)[C@@H](O)[C@H](O)[C@H]5O)[C@@H](O)[C@H](O)[C@H]4O)[C@@H](O)[C@H](O)[C@H]3O)[C@@H](O)[C@H](O)[C@H]2O)[C@@H](O)[C@H](O)[C@H]1O` [OCH3, n=6, methyl [O-β-D-glucopyranosyl-1,6]5-D-glucopyranoside], the “ELISA assay data: glucan active” value is listed as “+”. `O=C(O)C1CCN(CC(O)[C@@H](O)[C@H](O)[C@H](O)CO[C@@H]2O[C@H](CO[C@@H]3O[C@H](CO[C@@H]4O[C@H](CO[C@@H]5O[C@H](CO[C@@H]6O[C@H](CO)[C@@H](O)[C@H](O)[C@H]6O)[C@@H](O)[C@H](O)[C@H]5O)[C@@H](O)[C@H](O)[C@H]4O)[C@@H](O)[C@H](O)[C@H]3O)[C@@H](O)[C@H](O)[C@H]2O)C1` (mixture of isomers) [3-pyrrolidineCO2H, n=5]: the “ELISA assay data: glucan active” value is recorded as “+”.

For the compound “3,5-bis(1-[2-[O-β-D-glucopyranosyl-(1→6)-O-β-D-glucopyranosyl-(1→6)-O-β-D-glucopyranosyl-(1→6)-α-D-glucopyranosyl]oxy]ethyl-1H-1,2,3-triazol-4-yl)methoxybenzoic acid [(β-D-glucopyanosy1-1,6)nα-O(CH2)2-, n=4]”, the “ELISA assay data: glucan active” value is “+”. As for `COC1O[C@H](CO[C@@H]2O[C@H](CO[C@@H]3O[C@H](CO[C@@H]4O[C@H](CO[C@@H]5O[C@H](CO[C@@H]6O[C@H](CO[C@@H]7O[C@H](CO[C@@H]8O[C@H](CO[C@@H]9O[C@H](CO[C@@H]%10O[C@H](CO)[C@@H](O)[C@H](O)[C@H]%10O)[C@@H](O)[C@H](O)[C@H]9O)[C@@H](O)[C@H](O)[C@H]8O)[C@@H](O)[C@H](O)[C@H]7O)[C@@H](O)[C@H](O)[C@H]6O)[C@@H](O)[C@H](O)[C@H]5O)[C@@H](O)[C@H](O)[C@H]4O)[C@@H](O)[C@H](O)[C@H]3O)[C@@H](O)[C@H](O)[C@H]2O)[C@@H](O)[C@H](O)[C@H]1O` (stereo partly drawn) [OCH3, n=10, methyl [O-β-D-glucopyranosyl-1,6]9-D-glucopyranoside], the “ELISA assay data: glucan active” value is recorded as “+”. Next, `O=CCCCCO[C@@H]1O[C@H](CO[C@@H]2O[C@H](CO[C@@H]3O[C@H](CO[C@@H]4O[C@H](CO)[C@@H](O)[C@H](O)[C@H]4O)[C@@H](O)[C@H](O)[C@H]3O)[C@@H](O)[C@H](O)[C@H]2O)[C@@H](O)[C@H](O)[C@H]1O` [β-O(CH2)4C═O, n=4, 1-O-[4-oxybutoxy]-6-O—[O-β-D-glucopyranosyl-(1,6)]3-β-D-glucopyranoside]: “+”; `[N-]=[N+]=NCCO[C@H]1O[C@H](CO[C@@H]2O[C@H](CO[C@@H]3O[C@H](CO[C@@H]4O[C@H](CO)[C@@H](O)[C@H](O)[C@H]4O)[C@@H](O)[C@H](O)[C@H]3O)[C@@H](O)[C@H](O)[C@H]2O)[C@@H](O)[C@H](O)[C@H]1O` [α-O(CH2)2N3, n=4, 1-O-(2-azidoethyl)-6-[O-β-D-glucopyranosyl-1,6]3-α-D-glucopyranoside]: “+”. Regarding `CN(CCCCCN)CC(O)[C@@H](O)[C@H](O)[C@H](O)CO[C@@H]1O[C@H](CO[C@@H]2O[C@H](CO[C@@H]3O[C@H](CO[C@@H]4O[C@H](CO[C@@H]5O[C@H](CO)[C@@H](O)[C@H](O)[C@H]5O)[C@@H](O)[C@H](O)[C@H]4O)[C@@H](O)[C@H](O)[C@H]3O)[C@@H](O)[C@H](O)[C@H]2O)[C@@H](O)[C@H](O)[C@H]1O` (mixture of isomers) [N(Me),N(CH2)5NH2, n=5], the “ELISA assay data: glucan active” value was “+”. Turning to `O=C(O)C1CCN(CC(O)[C@@H](O)[C@H](O)[C@H](O)CO[C@@H]2O[C@H](CO[C@@H]3O[C@H](CO[C@@H]4O[C@H](CO)[C@@H](O)[C@H](O)[C@H]4O)[C@@H](O)[C@H](O)[C@H]3O)[C@@H](O)[C@H](O)[C@H]2O)C1` (mixture of isomers) [3-pyrrolidineCO2H, n=3], the “ELISA assay data: glucan active” value is listed as “+”. With “[O-β-D-glucopyranosyl-1,6]6-D-glucopyranoside [OH, n=7]”, the “ELISA assay data: glucan active” value was “+”. “[(2R,3R,4R,5RS)-2,3,4,5-tetrahydroxy-6-[(N-methyl-N-(5-aminopentyl))amino]hexyl [O-β-D-glucopyranosyl-1,6]6-β-D-glucopyranoside [N(Me),N(CH2)5NH2, n=7]”: the “ELISA assay data: glucan active” value is “+”.

On to `O=C(O)C1CCN(CC(O)[C@@H](O)[C@H](O)[C@H](O)CO[C@@H]2O[C@H](CO[C@@H]3O[C@H](CO[C@@H]4O[C@H](CO[C@@H]5O[C@H](CO)[C@@H](O)[C@H](O)[C@H]5O)[C@@H](O)[C@H](O)[C@H]4O)[C@@H](O)[C@H](O)[C@H]3O)[C@@H](O)[C@H](O)[C@H]2O)CC1` (mixture of isomers) [4-piperidineCO2H, n=4], for which the “ELISA assay data: glucan active” value is recorded as “+”. On to `O=C(O)C1CCN(CC(O)[C@@H](O)[C@H](O)[C@H](O)CO[C@@H]2O[C@H](CO[C@@H]3O[C@H](CO[C@@H]4O[C@H](CO[C@@H]5O[C@H](CO[C@@H]6O[C@H](CO)[C@@H](O)[C@H](O)[C@H]6O)[C@@H](O)[C@H](O)[C@H]5O)[C@@H](O)[C@H](O)[C@H]4O)[C@@H](O)[C@H](O)[C@H]3O)[C@@H](O)[C@H](O)[C@H]2O)CC1` (mixture of isomers) [4-piperidineCO2H, n=5], for which the “ELISA assay data: glucan active” value is listed as “+”. Under `COC1O[C@H](CO[C@@H]2O[C@H](CO[C@@H]3O[C@H](CO[C@@H]4O[C@H](CO[C@@H]5O[C@H](CO[C@@H]6O[C@H](CO[C@@H]7O[C@H](CO)[C@@H](O)[C@H](O)[C@H]7O)[C@@H](O)[C@H](O)[C@H]6O)[C@@H](O)[C@H](O)[C@H]5O)[C@@H](O)[C@H](O)[C@H]4O)[C@@H](O)[C@H](O)[C@H]3O)[C@@H](O)[C@H](O)[C@H]2O)[C@@H](O)[C@H](O)[C@H]1O` (stereo partly drawn) [OCH3, n=7, methyl [O-β-D-glucopyranosyl-1,6]6-D-glucopyranoside] stands “+”; under `OC[C@H]1O[C@@H](OC[C@H]2OC(O)[C@H](O)[C@@H](O)[C@@H]2O)[C@H](O)[C@@H](O)[C@@H]1O` (stereo partly shown) [OH, n=2], “+”.

Regarding `COC1O[C@H](CO[C@@H]2O[C@H](CO[C@@H]3O[C@H](CO)[C@@H](O)[C@H](O)[C@H]3O)[C@@H](O)[C@H](O)[C@H]2O)[C@@H](O)[C@H](O)[C@H]1O` (stereo partly drawn) [OCH3, n=3, methyl [O-β-D-glucopyranosyl-1,6]2-D-glucopyranoside], the “ELISA assay data: glucan active” value is reported as “+”. As for `O=C(O)c1cc(OCc2cn(CCO[C@@H]3O[C@H](CO[C@@H]4O[C@H](CO[C@@H]5O[C@H](CO[C@@H]6O[C@H](CO[C@@H]7O[C@H](CO)[C@@H](O)[C@H](O)[C@H]7O)[C@@H](O)[C@H](O)[C@H]6O)[C@@H](O)[C@H](O)[C@H]5O)[C@@H](O)[C@H](O)[C@H]4O)[C@@H](O)[C@H](O)[C@H]3O)nn2)cc(OCc2cn(CCO[C@@H]3O[C@H](CO[C@@H]4O[C@H](CO[C@@H]5O[C@H](CO[C@@H]6O[C@H](CO[C@@H]7O[C@H](CO)[C@@H](O)[C@H](O)[C@H]7O)[C@@H](O)[C@H](O)[C@H]6O)[C@@H](O)[C@H](O)[C@H]5O)[C@@H](O)[C@H](O)[C@H]4O)[C@@H](O)[C@H](O)[C@H]3O)nn2)c1` [(β-D-glucopyanosy1-1,6)nβ-O(CH2)2-, n=5, 3,5-bis(1[2-[O-β-D-glucopyranosyl-(1→6)]5oxy]ethyl-1H-1,2,3-triazol-4-yl)methoxybenzoic acid], the “ELISA assay data: glucan active” value is reported as “+”. Turning to `OC[C@H]1O[C@@H](OC[C@H]2O[C@@H](OC[C@H]3O[C@@H](OC[C@H]4O[C@@H](OC[C@H]5O[C@@H](OC[C@H]6O[C@@H](OC[C@H]7OC(OCCCl)[C@H](O)[C@@H](O)[C@@H]7O)[C@H](O)[C@@H](O)[C@@H]6O)[C@H](O)[C@@H](O)[C@@H]5O)[C@H](O)[C@@H](O)[C@@H]4O)[C@H](O)[C@@H](O)[C@@H]3O)[C@H](O)[C@@H](O)[C@@H]2O)[C@H](O)[C@@H](O)[C@@H]1O` (stereo partly drawn) [α-O(CH2)2Cl, n=7, 2-chloroethyl [O-β-D-glucopyranosyl-1,6]6-D-glucopyranoside], the “ELISA assay data: glucan active” value is recorded as “+”. Next, `OC[C@H]1O[C@@H](OC[C@H]2O[C@@H](OC[C@H]3OC(OCCCl)[C@H](O)[C@@H](O)[C@@H]3O)[C@H](O)[C@@H](O)[C@@H]2O)[C@H](O)[C@@H](O)[C@@H]1O` (stereo partly drawn) [α-O(CH2)2Cl, n=3, 2-chloroethyl [O-β-D-glucopyranosyl-1,6]2-D-glucopyranoside]: “+”.
